From PubChem BioAssay AID2060620 (Molecular Pharmacology Branch, DTP, NCI, 2025)

Test system: 328373-195-R-J1-PDC complex spheroids, viability % test/control
Experiment: Anticancer human tumor 328373-195-R-J1-PDC patient-derived head and neck squamous carcinoma cell line growth inhibition [CLK]
Conditions: for IC50: curve of first compound; for viability, T/C: stronger effect = lower value
How it was run: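 Multi-cell-type spheroids combined patient-derived tumor cells with HUVEC endothelial cells and human mesenchymal stem cells. Paired agents were dosed in half-log steps down from about clinical Cmax, or from 10 microM where Cmax was unknown.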

[1] = second compound 0.0316 µM, first compound 0.0316 µM
[2] = second compound 0.0316 µM, first compound 0.1 µM
[3] = second compound 0.0316 µM, first compound 0.316 µM
[4] = second compound 0.0316 µM, first compound 1 µM
[5] = second compound 0.1 µM, first compound 0.0316 µM
[6] = second compound 0.1 µM, first compound 0.1 µM
[7] = second compound 0.1 µM, first compound 0.316 µM
[8] = second compound 0.1 µM, first compound 1 µM
[9] = second compound 0.316 µM, first compound 0.0316 µM
[10] = second compound 0.316 µM, first compound 0.1 µM
[11] = second compound 0.316 µM, first compound 0.316 µM
[12] = second compound 0.316 µM, first compound 1 µM
[13] = second compound 1 µM, first compound 0.0316 µM
[14] = second compound 1 µM, first compound 0.1 µM
[15] = second compound 1 µM, first compound 0.316 µM
[16] = second compound 1 µM, first compound 1 µM
[17] = second compound 3.16 µM, first compound 0.0316 µM
[18] = second compound 3.16 µM, first compound 0.1 µM
[19] = second compound 3.16 µM, first compound 0.316 µM
[20] = second compound 3.16 µM, first compound 1 µM
[21] = second compound 10 µM, first compound 0.0316 µM
[22] = second compound 10 µM, first compound 0.1 µM
[23] = second compound 10 µM, first compound 0.316 µM
[24] = second compound 10 µM, first compound 1 µM
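Also: spheroids exposed to the agents for 7 days.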

Work on `C=C(F)C(=O)N1CCN(c2nc(OCC3CCCN3C)nc3c2CCN(c2cccc4cccc(Cl)c24)C3)CC1CC#N` (stereo unspecified) + CNC(=O)c1ccc(Nc2nc(OC3CCCC3)c3c(-c4ccc5nc(C)oc5c4)c[nH]c3n2)c(OC)c1 yielded an IC50 (second compound 0.0316 µM) of 1810 nM, an IC50 (second compound 0.1 µM) of less than 31.6 nM and an IC50 (second compound 0.316 µM) of less than 31.6 nM. For the same molecule, the IC50 (second compound 1 µM) was less than 31.6 nM, the IC50 (second compound 3.16 µM) was less than 31.6 nM and the IC50 (second compound 10 µM) was less than 31.6 nM. For the same molecule, the viability, T/C [1] was 55%, the viability, T/C [2] was 57.6% and the viability, T/C [3] was 57%. The viability, T/C [4] was 57.2%, the viability, T/C (second compound 0.0316 µM, first compound 3.16 µM) was 43.8% and the viability, T/C (second compound 0.0316 µM, first compound 10 µM) was 0.11%. It also gave a viability, T/C [5] of 11.2%, a viability, T/C [6] of 9.34% and a viability, T/C [7] of 8.18%. For the same molecule, the viability, T/C [8] was 10.4%, the viability, T/C (second compound 0.1 µM, first compound 3.16 µM) was 10.7% and the viability, T/C (second compound 0.1 µM, first compound 10 µM) was 0.09%. The viability, T/C [9] was 10.5%, the viability, T/C [10] was 8.47% and the viability, T/C [11] was 10.6%. For the same molecule, the viability, T/C [12] was 8.2%, the viability, T/C (second compound 0.316 µM, first compound 3.16 µM) was 8.71% and the viability, T/C (second compound 0.316 µM, first compound 10 µM) was 0.79%. The viability, T/C [13] was 8.55%, the viability, T/C [14] was 9.75% and the viability, T/C [15] was 8.98%. For the same molecule, the viability, T/C [16] was 8.73%, the viability, T/C (second compound 1 µM, first compound 3.16 µM) was 11.3% and the viability, T/C (second compound 1 µM, first compound 10 µM) was 0.08%. For the same molecule, the viability, T/C [17] was 11.6%, the viability, T/C [18] was 10% and the viability, T/C [19] was 9.7%. It also gave a viability, T/C [20] of 10.9%, a viability, T/C (second compound 3.16 µM, first compound 3.16 µM) of 9.36% and a viability, T/C (second compound 3.16 µM, first compound 10 µM) of 0.12%. For the same molecule, the viability, T/C [21] was 11.1%, the viability, T/C [22] was 11.5% and the viability, T/C [23] was 9.68%. The viability, T/C [24] was 10.4%, the viability, T/C (second compound 10 µM, first compound 3.16 µM) was 11.6% and the viability, T/C (second compound 10 µM, first compound 10 µM) was 0.19%.

With `CCN1CCN(Cc2ccc(Nc3ncc(F)c(-c4cc(F)c5nc(C)n(C(C)C)c5c4)n3)nc2)CC1` + CNC(=O)c1ccc(Nc2nc(OC3CCCC3)c3c(-c4ccc5nc(C)oc5c4)c[nH]c3n2)c(OC)c1 the IC50 (second compound 0.0316 µM) was 54.9 nM, the IC50 (second compound 0.1 µM) was less than 3.16 nM and the IC50 (second compound 0.316 µM) was less than 3.16 nM. It also gave an IC50 (second compound 1 µM) of less than 3.16 nM, an IC50 (second compound 3.16 µM) of less than 3.16 nM and an IC50 (second compound 10 µM) of less than 3.16 nM. The viability, T/C (second compound 0.0316 µM, first compound 0.00316 µM) was 53.3%, the viability, T/C (second compound 0.0316 µM, first compound 0.01 µM) was 60.8% and the viability, T/C [1] was 46.3%. The viability, T/C [2] was 48.5%, the viability, T/C [3] was 44.6% and the viability, T/C [4] was 36.1%. The viability, T/C (second compound 0.1 µM, first compound 0.00316 µM) was 12.7%, the viability, T/C (second compound 0.1 µM, first compound 0.01 µM) was 11.1% and the viability, T/C [5] was 13.1%. The viability, T/C [6] was 13.4%, the viability, T/C [7] was 15.7% and the viability, T/C [8] was 19.4%. It also gave a viability, T/C (second compound 0.316 µM, first compound 0.00316 µM) of 11.2%, a viability, T/C (second compound 0.316 µM, first compound 0.01 µM) of 11.9% and a viability, T/C [9] of 11.8%. It also gave a viability, T/C [10] of 12.6%, a viability, T/C [11] of 17.2% and a viability, T/C [12] of 14.6%. The viability, T/C (second compound 1 µM, first compound 0.00316 µM) was 9.58%, the viability, T/C (second compound 1 µM, first compound 0.01 µM) was 12% and the viability, T/C [13] was 12.7%. The viability, T/C [14] was 12.3%, the viability, T/C [15] was 14.1% and the viability, T/C [16] was 15.2%. For the same molecule, the viability, T/C (second compound 3.16 µM, first compound 0.00316 µM) was 12%, the viability, T/C (second compound 3.16 µM, first compound 0.01 µM) was 10.5% and the viability, T/C [17] was 12.8%. It also gave a viability, T/C [18] of 15%, a viability, T/C [19] of 15.9% and a viability, T/C [20] of 16.7%. It also gave a viability, T/C (second compound 10 µM, first compound 0.00316 µM) of 14.5%, a viability, T/C (second compound 10 µM, first compound 0.01 µM) of 11.4% and a viability, T/C [21] of 15.1%. The viability, T/C [22] was 15.1%, the viability, T/C [23] was 17.6% and the viability, T/C [24] was 13.1%.

With `C=CC(=O)Nc1cc(Nc2nccc(-c3cn(C)c4ccccc34)n2)c(OC)cc1N(C)CCN(C)C` + CNC(=O)c1ccc(Nc2nc(OC3CCCC3)c3c(-c4ccc5nc(C)oc5c4)c[nH]c3n2)c(OC)c1 the IC50 (second compound 0.0316 µM) was 39.4 nM, the IC50 (second compound 0.1 µM) was less than 0.949 nM and the IC50 (second compound 0.316 µM) was less than 0.949 nM. The IC50 (second compound 1 µM) was less than 0.949 nM, the IC50 (second compound 3.16 µM) was less than 0.949 nM and the IC50 (second compound 10 µM) was less than 0.949 nM. The viability, T/C (second compound 0.0316 µM, first compound 0.000949 µM) was 53.9%, the viability, T/C (second compound 0.0316 µM, first compound 0.003 µM) was 60.2% and the viability, T/C (second compound 0.0316 µM, first compound 0.00949 µM) was 57.1%. For the same molecule, the viability, T/C (second compound 0.0316 µM, first compound 0.03 µM) was 50.1%, the viability, T/C (second compound 0.0316 µM, first compound 0.0949 µM) was 44% and the viability, T/C (second compound 0.0316 µM, first compound 0.3 µM) was 28.7%. For the same molecule, the viability, T/C (second compound 0.1 µM, first compound 0.000949 µM) was 12.7%, the viability, T/C (second compound 0.1 µM, first compound 0.003 µM) was 11.5% and the viability, T/C (second compound 0.1 µM, first compound 0.00949 µM) was 10%. The viability, T/C (second compound 0.1 µM, first compound 0.03 µM) was 10.6%, the viability, T/C (second compound 0.1 µM, first compound 0.0949 µM) was 6.8% and the viability, T/C (second compound 0.1 µM, first compound 0.3 µM) was 4.77%. For the same molecule, the viability, T/C (second compound 0.316 µM, first compound 0.000949 µM) was 10.9%, the viability, T/C (second compound 0.316 µM, first compound 0.003 µM) was 9.46% and the viability, T/C (second compound 0.316 µM, first compound 0.00949 µM) was 9.6%. The viability, T/C (second compound 0.316 µM, first compound 0.03 µM) was 11.1%, the viability, T/C (second compound 0.316 µM, first compound 0.0949 µM) was 7.49% and the viability, T/C (second compound 0.316 µM, first compound 0.3 µM) was 5.37%. For the same molecule, the viability, T/C (second compound 1 µM, first compound 0.000949 µM) was 9.22%, the viability, T/C (second compound 1 µM, first compound 0.003 µM) was 11.8% and the viability, T/C (second compound 1 µM, first compound 0.00949 µM) was 9.93%. The viability, T/C (second compound 1 µM, first compound 0.03 µM) was 9.14%, the viability, T/C (second compound 1 µM, first compound 0.0949 µM) was 7.31% and the viability, T/C (second compound 1 µM, first compound 0.3 µM) was 3.84%. For the same molecule, the viability, T/C (second compound 3.16 µM, first compound 0.000949 µM) was 10.8%, the viability, T/C (second compound 3.16 µM, first compound 0.003 µM) was 9.2% and the viability, T/C (second compound 3.16 µM, first compound 0.00949 µM) was 10.8%. The viability, T/C (second compound 3.16 µM, first compound 0.03 µM) was 10.1%, the viability, T/C (second compound 3.16 µM, first compound 0.0949 µM) was 8.03% and the viability, T/C (second compound 3.16 µM, first compound 0.3 µM) was 3.03%. The viability, T/C (second compound 10 µM, first compound 0.000949 µM) was 12%, the viability, T/C (second compound 10 µM, first compound 0.003 µM) was 10.6% and the viability, T/C (second compound 10 µM, first compound 0.00949 µM) was 11.6%. The viability, T/C (second compound 10 µM, first compound 0.03 µM) was 11.5%, the viability, T/C (second compound 10 µM, first compound 0.0949 µM) was 9.82% and the viability, T/C (second compound 10 µM, first compound 0.3 µM) was 3.85%.
